Assay results as given in patent US20080275018A1, “ANTIBACTERIAL AMIDE-MACROCYCLES V” (AiCuris GmbH & Co. KG, priority 2005, published 2008).

Molecular target: S. aureus 133 Translation
Experiment: S. aureus in vitro transcription-translation assay (firefly luciferase, S30 extract)
Assay type: biochemical
Settings: 50% inhibition of the translation of firefly luciferase
Source text: For the construction of a reporter plasmid which can be used in an in vitro transcription-translation assay from S. aureus the plasmid pBESTluc (Promega Corporation, USA) is used. The E. coli tac promoter present in this plasmid in front of the firefly luciferase is replaced by the capA1 promoter with corresponding Shine-Dalgarno sequence from S. aureus. The primers CAPFor 5′-[…]-[…] GCCA-3′ and CAPRev 5′-[…]-3′ are used for this. The primer CAPFor contains the capA1 promoter, the ribosome binding site and the 5′ region of the luciferase gene. After PCR using pBESTluc as template it is possible to isolate a PCR product which contains the firefly luciferase gene with the fused capA1 promoter. This is, after restriction with ClaI and HindIII, ligated into the vector pBESTluc which has likewise been digested with ClaI and HindIII. The resulting plasmid pla can be replicated in E. coli and be used as template in the S. aureus in vitro transcription-translation test.
Six litres of BHI medium are inoculated with a 250 ml overnight culture of an S. aureus Strain and allowed to grow at 37° C. until the OD600 nm is 2-4. The cells are harvested by centrifugation and washed in 500 ml of cold buffer A (10 mM Tris acetate, pH 8.0, 14 mM magnesium acetate, 1 mM DTT, 1 M KCl). After renewed centrifugation, the cells are washed in 250 ml of cold buffer A with 50 mM KCl, and the resulting pellets are frozen at −20° C. for 60 min. The pellets are thawed on ice in 30 to 60 min and taken up to a total volume of 99 ml in buffer B (10 mM Tris acetate, pH 8.0, 20 mM magnesium acetate, 1 mM DTT, 50 mM KCl). 1.5 ml portions of lysostaphin (0.8 mg/ml) in buffer B are provided in 3 precooled centrifuge cups and each mixed with 33 ml of the cell suspension. The samples are incubated at 37° C., shaking occasionally, for 45 to 60 min, before 150 μl of a 0.5 M DTT solution are added. The lysed cells are centrifuged at 30 000×g and 4° C. for 30 min. The cell pellet is taken up in buffer B and then centrifuged again under the same conditions, and the collected supernatants are combined. The supernatants are centrifuged again under the same conditions, and 0.25 volumes of buffer C (670 mM Tris acetate, pH 8.0, 20 mM magnesium acetate, 7 mM Na3 phosphoenolpyruvate, 7 mM DTT, 5.5 mM ATP, 70 μM amino acids (complete from Promega), 75 μg of pyruvate kinase (Sigma, Germany)/ml are added to the upper ⅔ of the supernatant. The samples are incubated at 37° C. for 30 min. The supernatants are dialysed against 2 l of dialysis buffer (10 mM Tris acetate, pH 8.0, 14 mM magnesium acetate, 1 mM DTT, 60 mM potassium acetate) in a dialysis tube with a 3500 Da cut-off with one buffer change at 4° C. overnight. The dialysate is concentrated to a protein concentration of about 10 mg/ml by
covering the dialysis tube with cold PEG 8000 powder (Sigma, Germany) at 4° C. The S30 extracts can be stored in aliquots at −70° C.
The inhibition of protein biosynthesis of the compounds can be shown in an in vitro transcription-translation assay. The assay is based on the cell-free transcription and translation of firefly luciferase using the reporter plasmid pla as template and cell-free S30 extracts obtained from S. aureus. The activity of the resulting luciferase can be detected by luminescence measurement.
The amount of S30 extract or plasmid pla to be employed must be tested anew for each preparation in order to ensure an optimal concentration in the test. […] of the substance to be tested, dissolved in 5% DMSO, are introduced into an MTP. Then […] of a suitably concentrated plasmid solution pla are added. […]

Structure (SMILES): NC[C@H](O)C[C@@H]1NC(=O)[C@@H](N)Cc2cc(ccc2O)-c2ccc(O)c(c2)C[C@@H](C(=O)O)NC1=O [Biphenomycin B, biphenomycin B, reference compound]
- IC50: 1500 nM
